The structures appear in SMILES notation.

For assay [1], the target named is T1, COS-7/AMY3 (human calcitonin receptor (CTR) and RAMP3) (Homo sapiens, UniProt O60896+P30988).
T1 construct: expressed in transfected cells; host or cells: COS-7
As to the kind of experiment: Amylin Receptor cAMP Assay II. Format: cell-based. The following applies: values marked **: Amylin Receptor cAMP Assay II; COS-7/AMY3 cells, cAMP dynamic 2 kit, 30 min; read-out: Amylin Receptor cAMP Stimulation Activity: EC50. In outline: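 Agonist-induced cAMP was quantified by HTRF ratio at 665/615 nm and expressed as % of the window from vehicle to MAX control. Stimulation lasted 30 min at 37 °C in HBSS/20 mM HEPES/0.5 mM IBMX/0.1% casein, using stable human CTR+RAMP3 (AMY3) COS-7 cells at 2000 per well.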

The target of assay [2] is T2, human calcitonin receptor (CTR) (Homo sapiens, UniProt P30988).
T2 construct: expressed in transfected cells; host or cells: COS-7 (COS7-human CTR Clone #2)
T2 sequence (P30988 25-474): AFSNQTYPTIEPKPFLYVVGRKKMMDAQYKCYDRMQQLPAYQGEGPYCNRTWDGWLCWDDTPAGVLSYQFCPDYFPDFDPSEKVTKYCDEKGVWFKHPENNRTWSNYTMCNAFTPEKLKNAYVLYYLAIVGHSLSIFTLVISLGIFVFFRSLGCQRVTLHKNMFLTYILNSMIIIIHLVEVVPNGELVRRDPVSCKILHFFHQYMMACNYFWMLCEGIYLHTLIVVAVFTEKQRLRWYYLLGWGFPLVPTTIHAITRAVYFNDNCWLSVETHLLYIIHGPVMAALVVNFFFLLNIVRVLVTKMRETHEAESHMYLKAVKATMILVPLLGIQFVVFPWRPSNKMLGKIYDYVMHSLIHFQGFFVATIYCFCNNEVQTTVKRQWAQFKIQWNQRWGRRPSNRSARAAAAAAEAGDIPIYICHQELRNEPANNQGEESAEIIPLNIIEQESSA
As to the kind of experiment: Calcitonin Receptor (CTR) cAMP Assay. Format: cell-based. To be noted: COS7-human CTR Clone #2 stable cell line, cAMP dynamic 2 kit, 30 min; read-out: Calcitonin Receptor cAMP Stimulation Activity: EC50. In short, it runs like this: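 cAMP accumulation was measured by HTRF cAMP dynamic 2 read at 665/615 nm, 1 h at room temperature, with results scaled between vehicle and positive control. Before detection, COS7-human CTR stable cells were stimulated 30 min at 37 °C with compound (4-fold dilutions) in IBMX-containing HBSS/HEPES/casein buffer.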

T1 sequence (O60896 24-148, one chain of several): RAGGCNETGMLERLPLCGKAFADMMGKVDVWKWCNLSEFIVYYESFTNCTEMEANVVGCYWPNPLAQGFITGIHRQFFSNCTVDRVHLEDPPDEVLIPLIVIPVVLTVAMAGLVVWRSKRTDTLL

As a reminder, the EC50 is the concentration at which the effect is half-maximal. `COc1cccc2c1CC[C@H]2Nc1nccc2cc(-c3c4c(nc(CCc5cccc(C(F)(F)F)c5)c3-c3noc(=O)[nH]3)[C@@H]3CCCN3C4=O)sc12` [Compound 124, 3-((S)-4-(7-(((R)-4-methoxy-2,3-dihydro-1H-inden-1-yl)amino)thieno[2,3-c]pyridin-2-yl)-5-oxo-2-(3-(trifluoromethyl)phenethyl)-7,8,9,9a-tetrahydro-5H-pyrido[2,3-a]pyrrolizin-3-yl)-1,2,4-oxadiazol-5(4H)-one]: the half-maximal effective concentration (EC50) in assay [1] was 18.2 nM; in assay [2], 0.628 nM.
For `COc1c(F)ccc2c1CC[C@H]2Nc1cccc2nc(-c3c4c(nc(CCc5ccc(F)cc5)c3-c3n[nH]c(=O)o3)C35CC(CN3C4=O)C5)sc12` [Compound 267, (R)-5-(4-(7-((5-fluoro-4-methoxy-2,3-dihydro-1H-inden-1-yl)amino)benzo[d]thiazol-2-yl)-2-(4-fluorophenethyl)-5-oxo-8,9-dihydro-5H,7H-8,9a-methanopyrido[2,3-a]pyrrolizin-3-yl)-1,3,4-oxadiazol-2(3H)-one], the EC50 in assay [1] came out at 14.6 nM; in assay [2], 0.738 nM.
In the case of `Cc1cc2cc(-c3c4c(nc(CCc5ccc(F)cc5)c3-c3n[nH]c(=O)o3)C35CC(CN3C4=O)C5)sc2c(N[C@@H]2CCc3cc(F)c(F)cc32)n1` [Compound 255, (R)-5-(4-(7-((5,6-difluoro-2,3-dihydro-1H-inden-1-yl)amino)-5-methylthieno[2,3-c]pyridin-2-yl)-2-(4-fluorophenethyl)-5-oxo-8,9-dihydro-5H,7H-8,9a-methanopyrido[2,3-a]pyrrolizin-3-yl)-1,3,4-oxadiazol-2(3H)-one], the EC50 in assay [1] worked out at 0.318 nM; in assay [2], 0.0127 nM.
For the compound `COc1c(Cl)cc2c(c1F)CC[C@H]2Nc1nccc2cc(-c3c4c(nc(CCc5ccc(F)cc5)c3-c3n[nH]c(=O)o3)C35CC(CN3C4=O)C5)sc12` [Compound 289, (R)-5-(4-(7-((6-chloro-4-fluoro-5-methoxy-2,3-dihydro-1H-inden-1-yl)amino)thieno[2,3-c]pyridin-2-yl)-2-(4-fluorophenethyl)-5-oxo-5,7,8,9-tetrahydro-8,9a-methanopyrido[2,3-a]pyrrolizin-3-yl)-1,3,4-oxadiazol-2(3H)-one], the EC50 worked out at 0.54 nM in assay [1] and 0.0645 nM in assay [2].
In the case of `COc1c(F)ccc2c1C[C@@H](F)[C@H]2Nc1nc(C)cc2cc(-c3c4c(nc(CCc5ccc(F)cc5)c3-c3n[nH]c(=O)o3)C35CC(CN3C4=O)C5)sc12` [Compound 196, 5-(4-(7-(((1S,2R)-2,5-difluoro-4-methoxy-2,3-dihydro-1H-inden-1-yl)amino)-5-methylthieno[2,3-c]pyridin-2-yl)-2-(4-fluorophenethyl)-5-oxo-8,9-dihydro-5H,7H-8,9a-methanopyrido[2,3-a]pyrrolizin-3-yl)-1,3,4-oxadiazol-2(3H)-one], the results for the EC50 in assay [1] and in assay [2] were 0.196 nM and 0.00979 nM, respectively.
`O=C1c2c(nc(CCc3ccc(F)cc3)c(-c3noc(=O)[nH]3)c2-c2ccc3c(c2)CC[C@H]3OCc2ccc(F)c(F)c2)[C@@H]2CCCN12` [Compound 113]: the EC50 worked out at 1120 nM in assay [1] and 271 nM in assay [2].
For `N#Cc1ccc(Cn2ccc3cc(-c4c(-c5cc(=O)[nH]o5)c(CCC5CCOCC5)nc5c4S(=O)(=O)N4CCC[C@@H]54)ccc32)cc1F` [Compound 200, 4-[[5-[(2S)-7,7-dioxo-10-(3-oxoisoxazol-5-yl)-11-(2-tetrahydropyran-4-ylethyl)-7thia-6,12-diazatricyclo[6.4.0.02,6]dodeca-1(8),9,11-trien-9-yl]indol-1-yl]methyl]-2-fluoro-benzonitrile] the same measures were 1310 nM and 8.61 nM.
On to `O=C1c2c(nc(CCc3ccc(F)cc3)c(-c3n[nH]c(=O)o3)c2-c2ccc3c(Cc4ccc(F)cc4F)noc3c2)[C@@H]2CCCN12` [Compound 221, (S)-5-(4-(3-(2,4-difluorobenzyl)benzo[d]isoxazol-6-yl)-2-(4-fluorophenethyl)-5-oxo-7,8,9,9a-tetrahydro-5H-pyrido[2,3-a]pyrrolizin-3-yl)-1,3,4-oxadiazol-2(3H)-one], for which the EC50 stood at 865 nM in assay [1] and 15.5 nM in assay [2].
Turning to `COc1c(F)ccc2c1CC[C@H]2Nc1nccc2cc(-c3c4c(nc(CCc5ccc(F)cc5)c3-c3n[nH]c(=O)o3)[C@@H]3COCCN3C4=O)sc12` [Compound 262, (R)-4-(7-(((R)-5-fluoro-4-methoxy-2,3-dihydro-1H-inden-1-yl)amino)thieno[2,3-c]pyridin-2-yl)-2-(4-fluorophenethyl)-3-(5-oxo-4,5-dihydro-1,3,4-oxadiazol-2-yl)-7,8,10,10a-tetrahydro-5H-pyrido[2′,3′:3,4]pyrrolo[2,1-c][1,4]oxazin-5-one], the figures for the EC50 in assay [1] and in assay [2] were 2.81 nM and 0.0963 nM, respectively.
For the compound `N#Cc1ccc(Cn2ccc3cc(-c4c5c(nc(CCc6ccc(F)cc6)c4-c4n[nH]c(=O)o4)C4CCCN4C5=O)cnc32)cc1F` (stereo not shown) [Compound 214, 2-fluoro-4-((5-(2-(4-fluorophenethyl)-5-oxo-3-(5-oxo-4,5-dihydro-1,3,4-oxadiazol-2-yl)-7,8,9,9a-tetrahydro-5H-pyrido[2,3-a]pyrrolizin-4-yl)-1H-pyrrolo[2,3-b]pyridin-1-yl)methyl)benzonitrile], the EC50 turned out to be 129 nM in assay [1] and 1.92 nM in assay [2].
For `CN(Cc1ccc(F)c(F)c1)c1nccc2cc(-c3c4c(nc(CCc5ccc(F)cc5)c3-c3noc(=O)[nH]3)[C@@H]3CCCN3C4=O)sc12` [Compound 107, (S)-3-(4-(7-((3,4-difluorobenzyl)(methyl)amino)thieno[2,3-c]pyridin-2-yl)-2-(4-fluorophenethyl)-5-oxo-7,8,9,9a-tetrahydro-5H-pyrido[2,3-a]pyrrolizin-3-yl)-1,2,4-oxadiazol-5(4H)-one] the same measures were 34.4 nM and 9.03 nM.
`COc1cccc2c1CC[C@H]2Nc1nccc2cc(-c3c4c(nc(CCc5ccc(F)cc5)c3-c3n[nH]c(=O)o3)[C@]3(C)COCCN3C4=O)sc12` [Compound 179, (R)-2-(4-fluorophenethyl)-4-(7-(((R)-4-methoxy-2,3-dihydro-1H-inden-1-yl)amino)thieno[2,3-c]pyridin-2-yl)-10a-methyl-3-(5-oxo-4,5-dihydro-1,3,4-oxadiazol-2-yl)-7,8,10,10a-tetrahydro-5H-pyrido[2′,3′:3,4]pyrrolo[2,1-c][1,4]oxazin-5-one]: the EC50 was found to be 34.2 nM in assay [1] and 1.25 nM in assay [2].
As to `CC(c1ccc(F)c(F)c1)n1ccc2cc(-c3c4c(nc(CCC5CCOCC5)c3-c3cc(=O)[nH]o3)[C@@H]3CCCN3C4=O)ccc21` (stereo partly drawn) [Compound 202, 5-((9aS)-4-(1-(1-(3,4-difluorophenyl)ethyl)-1H-indol-5-yl)-5-oxo-2-(2-(tetrahydro-2H-pyran-4-yl)ethyl)-7,8,9,9a-tetrahydro-5H-pyrido[2,3-a]pyrrolizin-3-yl)isoxazol-3(2H)-one], the values for the 50% effective concentration (EC50) in assay [1] and in assay [2] were 1750 nM and 66.2 nM, respectively.
In the case of `O=C(NCc1ccc(F)c(F)c1)c1ccc(-c2c3c(nc(CCc4ccc(F)cc4)c2-c2noc(=O)[nH]2)[C@@H]2CCCN2C3=O)s1` [Compound 101], the figures for the EC50 in assay [1] and in assay [2] were 101 nM and 12.9 nM, respectively.
For the compound `COc1c(F)c(F)cc2c1CC[C@H]2Nc1nc(C)cc2cc(-c3c4c(nc(CCc5ccc(F)cc5)c3-c3n[nH]c(=O)o3)[C@@H]3CCCN3C4=O)sc12` [Compound 299, 5-((S)-4-(7-(((R)-5,6-difluoro-4-methoxy-2,3-dihydro-1H-inden-1-yl)amino)-5-methylthieno[2,3-c]pyridin-2-yl)-2-(4-fluorophenethyl)-5-oxo-7,8,9,9a-tetrahydro-5H-pyrido[2,3-a]pyrrolizin-3-yl)-1,3,4-oxadiazol-2(3H)-one], the concentration giving a half-maximal response (EC50) in assay [1] is 0.363 nM; in assay [2], 0.0172 nM.
For `N#Cc1ccc(Cn2c(=O)oc3cc(-c4c5c(nc(CCc6ccc(F)cc6)c4-c4n[nH]c(=O)o4)[C@@H]4CCCN4C5=O)ccc32)nc1` [Compound 176, 6-[[6-[(9aS)-2-[2-(4-fluorophenyl)ethyl]-5-oxo-3-(2-oxo-3H-1,3,4-oxadiazol-5-yl)-7,8,9,9a-tetrahydropyrido[2,3-a]pyrrolizin-4-yl]-2-oxo-1,3-benzoxazol-3-yl]methyl]pyridine-3-carbonitrile] the same measures were 10.7 nM and 0.557 nM.
For the compound `COc1cccc2c1CC[C@H]2Nc1nccc2cc(-c3c(-c4n[nH]c(=O)o4)c(CCc4ccc(F)cc4)nc4c3S(=O)(=O)C[C@@H]4C(C)C)sc12` [Compound 236, 5-((R)-5-(4-fluorophenethyl)-3-isopropyl-7-(7-(((R)-4-methoxy-2,3-dihydro-1H-inden-1-yl)amino)thieno[2,3-c]pyridin-2-yl)-1,1-dioxido-2,3-dihydrothieno[3,2-b]pyridin-6-yl)-1,3,4-oxadiazol-2(3H)-one], the values for the EC50 in assay [1] and in assay [2] were 128 nM and 177 nM, respectively.

(Values after patent US12486269B2 (Aconcagua Bio, Inc., priority 2024, dated 2025).)
